Data set [1] deals with S. aureus SrtA (WT-SrtA) (Staphylococcus aureus, UniProt Q2FV99). Briefly: biochemical.
Data set [2] relates to S. aureus. Briefly: microbe, parasite or virus in culture. It is filed as cell-based. The conditions noted are these: Staphylococcus aureus, read-out: minimum inhibitory concentration (MIC).
Data set [3] concerns S. aureus USA 300. Type of data set: cell-based, Staphylococcus aureus.
Data set [4] deals with hla gene. It is filed as cell-based, Staphylococcus aureus.
The subject of data set [5] is agrA gene. Type of data set: cell-based, Staphylococcus aureus.
Data set [6] has as its system SpA display in S. aureus. It is filed as cell-based, Staphylococcus aureus.
The subject of data set [7] is adhesion of S. aureus to Fn. Type of data set: cell-based, Staphylococcus aureus.
The test system of data set [8] is S. aureus biofilm formation. Type of data set: cell-based, Staphylococcus aureus.
Data set [9] has as its system S. aureus invasion of J774 cells. Type of data set: cell-based, Staphylococcus aureus.
Data set [10] has as its target WT-SrtA (Staphylococcus aureus, UniProt Q2FV99). Briefly: biochemical. It is filed as binding.
The subject of data set [11] is A549 cells. It is filed as cell-based.
The test system of data set [12] is S. aureus. Also noted: species or system C57BL/6J mice. The conditions noted are these: mouse, in vivo.
Data set [13] concerns A549 cells.

Sequence of WT-SrtA (Q2FV99 60-206): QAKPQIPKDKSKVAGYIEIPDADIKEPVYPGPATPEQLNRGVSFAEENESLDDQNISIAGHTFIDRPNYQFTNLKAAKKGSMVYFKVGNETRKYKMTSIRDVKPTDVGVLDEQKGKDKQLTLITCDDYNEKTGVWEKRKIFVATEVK
Sequence of S. aureus SrtA (WT-SrtA) (Q2FV99 60-206): as above

As usually defined, the IC50 is the point on the concentration scale where inhibition reaches its midpoint. Lower therefore signals greater potency. One may read the Kd as a measure of binding affinity in units of concentration. A high value points to weaker binding. Compound `O=C(/C=C/c1ccccc1)c1ccccc1` [chalcone] yielded an IC50 in data set [1] of 53.2 µM. Also, in [2], the MIC was greater than 4.86 mM. Moreover, the “growth of S. aureus USA 300” value in data set [3] was “not visibly affected”. Besides, the “transcription level of the hla gene” value in data set [4] is “down-regulated”. Also, the “transcription level of the agrA gene” value in data set [5] is “down-regulated”. Further, the SpA display entry in [6] is listed as “significant reductions”. The “adhesion rate to Fn” value in data set [7] was “no inhibition was observed”. The “biofilm formation, untreated vs. treated” value in [8] is given as “quite significant”. In addition, the “quantity of bacteria entering J774 cells” value in [9] was “significantly decreased”. In addition, the affinity in [10], expressed as Kd, was 16.4 µM. Besides, in data set [11], the “Hla-induced A549 cell injury (Live/Dead)” value is on record as “obvious reduction in cell injury” and the “release of LDH into the supernatants” value is listed as “significantly decrease”. In data set [12], the “survival rate vs. group without treatment” value is listed as “significantly higher”. Besides, the “cytotoxic effect in A549 cells” value in data set [13] was “almost no cytotoxic effect”.

For the origin of these results see paper PMC5592744 (Frontiers in Microbiology, 2017).
